Results: the supplement of paper PMC10307832

Tests used:
Experiment in all cases: relative viability (nuclei count vs DMSO), 5 days (fraction); higher = more cells survive
AZD1208 + Palbociclib = compound: N[C@@H]1CCCN(c2c(/C=C3\SC(=O)NC3=O)cccc2-c2ccccc2)C1 [AZD1208] + CC(=O)c1c(C)c2cnc(Nc3ccc(N4CCNCC4)cn3)nc2n(C2CCCC2)c1=O [Palbociclib] (partner 0.5 µM)
Summary of the method: (§1)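 Relative viability was taken as the ratio of nuclei in treated wells to nuclei in vehicle wells. Lung cancer cell lines in 1536-well plates received compounds by pin tool one day after seeding, either one drug alone or a fixed anchor-drug dose plus five library-drug doses (not always all listed) in √10 steps. Nuclei were counted on 4× images after 5 days of treatment, and values are medians of duplicate plates.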

AZD1208 + Dasatinib = compound: N[C@@H]1CCCN(c2c(/C=C3\SC(=O)NC3=O)cccc2-c2ccccc2)C1 [AZD1208] + Cc1nc(Nc2ncc(C(=O)Nc3c(C)cccc3Cl)s2)cc(N2CCN(CCO)CC2)n1 [Dasatinib] (partner 0.075 µM)
Summary of the method: as §1

XMD14-99 + Linsitinib = compound: CN1CCN(CC1)C2=CC(=C(C=C2)NC3=NC(=C(S3)C(=O)C4=C(C=CC=C4Cl)Cl)N)OC [XMD14-99] + C[C@]1(O)C[C@@H](c2nc(-c3ccc4ccc(-c5ccccc5)nc4c3)c3c(N)nccn32)C1 [Linsitinib] (partner 1 µM)
Summary of the method: as §1

XMD14-99 + Bortezomib = compound: CN1CCN(CC1)C2=CC(=C(C=C2)NC3=NC(=C(S3)C(=O)C4=C(C=CC=C4Cl)Cl)N)OC [XMD14-99] + CC(C)C[C@H](NC(=O)[C@H](Cc1ccccc1)NC(=O)c1cnccn1)B(O)O [Bortezomib] (partner 0.002 µM)
Summary of the method: as §1

Row | Cell Line | relative viability (AZD1208 + Palbociclib; first compound 0.08 µM) | relative viability (AZD1208 + Palbociclib; first compound 0.253 µM) | relative viability (AZD1208 + Palbociclib; first compound 0.8 µM) | relative viability (AZD1208 + Palbociclib; first compound 2.53 µM) | relative viability (AZD1208 + Palbociclib; first compound 8 µM) | relative viability (AZD1208 + Dasatinib; first compound 0.08 µM) | relative viability (AZD1208 + Dasatinib; first compound 0.253 µM) | relative viability (AZD1208 + Dasatinib; first compound 0.8 µM) | relative viability (AZD1208 + Dasatinib; first compound 2.53 µM) | relative viability (AZD1208 + Dasatinib; first compound 8 µM) | relative viability (XMD14-99 + Linsitinib; first compound 0.08 µM) | relative viability (XMD14-99 + Linsitinib; first compound 0.8 µM) | relative viability (XMD14-99 + Linsitinib; first compound 2.53 µM) | relative viability (XMD14-99 + Linsitinib; first compound 8 µM) | relative viability (XMD14-99 + Bortezomib; first compound 0.08 µM) | relative viability (XMD14-99 + Bortezomib; first compound 0.8 µM) | relative viability (XMD14-99 + Bortezomib; first compound 2.53 µM) | relative viability (XMD14-99 + Bortezomib; first compound 8 µM)
1 | HCC-827 | 0.493 | 0.411 | 0.405 | 0.481 | 0.509 | 0.286 | 0.297 | 0.263 | 0.255 | 0.247 | 0.991 | 0.86 | 0.828 | 0.802 | 1.12 | 0.994 | 0.976 | 0.802
2 | HOP-62 | 0.483 | 0.503 | 0.431 | 0.439 | 0.469 | 0.679 | 0.712 | 0.541 | 0.572 | 0.647 | 0.965 | 0.894 | 0.794 | 0.894 | 0.604 | 0.694 | 0.863 | 0.605
3 | IA-LM | – | – | – | – | – | – | – | – | – | – | 0.648 | 0.308 | 0.286 | 0.281 | 0.783 | 0.79 | 0.47 | 0.394
4 | LC-2-ad | 0.591 | 0.52 | 0.528 | 0.501 | 0.5 | 0.525 | 0.464 | 0.465 | 0.51 | 0.459 | 0.892 | 0.817 | 0.83 | 0.563 | 0.993 | 0.978 | 1 | 0.732
5 | LCLC-97TM1 | 0.197 | 0.203 | 0.199 | 0.216 | 0.19 | 0.88 | 0.827 | 0.82 | 0.631 | 0.891 | 0.162 | 0.157 | 0.141 | 0.176 | 0.801 | 0.629 | 0.625 | 0.33
6 | LCLC-103H | 0.494 | 0.417 | 0.52 | 0.462 | 0.434 | 0.448 | 0.501 | 0.421 | 0.448 | 0.33 | 0.909 | 1.13 | 1 | 0.973 | 0.991 | 1.08 | 1.07 | 0.995
7 | LK-2 | 0.58 | 0.486 | – | 0.294 | 0.266 | 0.273 | 0.224 | 0.17 | 0.167 | 0.178 | 0.398 | 0.369 | 0.659 | 0.471 | – | – | – | –
8 | LOU-NH91 | 0.473 | 0.56 | 0.549 | 0.525 | 0.531 | 0.57 | 0.551 | 0.496 | 0.496 | 0.491 | 0.963 | 1 | 0.924 | 0.865 | 0.498 | 0.416 | 0.451 | 0.447
9 | LU99A | 0.379 | 0.414 | 0.398 | 0.339 | 0.319 | 0.451 | 0.556 | 0.363 | 0.572 | 0.389 | 0.511 | 0.396 | 0.488 | 0.425 | 1.17 | 1.06 | 1.11 | 0.956
10 | NCI-H358 | 0.14 | 0.149 | 0.109 | 0.14 | 0.14 | 0.138 | 0.142 | 0.139 | 0.116 | 0.142 | 0.703 | 0.673 | 0.557 | 0.29 | – | – | – | –
11 | NCI-H522 | 0.915 | 1.09 | 0.896 | 0.942 | 0.76 | 0.828 | 0.774 | 0.911 | 0.78 | 0.717 | – | – | – | – | – | – | – | –
12 | NCI-H596 | – | – | – | – | – | 0.545 | 0.586 | 0.524 | 0.524 | 0.462 | 1.06 | 1.05 | 1.08 | 1.04 | 0.962 | 1.07 | 1.07 | 0.797
13 | NCI-H1299 | – | – | – | – | – | – | – | – | – | – | 0.95 | 0.905 | 0.908 | 0.846 | 1.09 | 1 | 0.944 | 0.83
14 | NCI-H1395 | 0.598 | 0.653 | 0.572 | 0.62 | 0.521 | 0.453 | 0.373 | 0.36 | 0.38 | 0.356 | 1.04 | 1.02 | 0.955 | 0.784 | – | – | – | –
15 | NCI-H1563 | – | – | – | – | – | 0.465 | 0.433 | 0.421 | 0.447 | 0.395 | 1.21 | 1.12 | 1.17 | 1.08 | 0.885 | 1.07 | 0.85 | 0.686
16 | NCI-H1623 | – | – | – | – | – | 0.633 | 0.514 | 0.484 | 0.438 | 0.632 | – | – | – | – | – | – | – | –
17 | NCI-H1648 | 0.277 | 0.255 | 0.244 | 0.227 | 0.294 | – | – | – | – | – | – | – | – | – | – | – | – | –
18 | NCI-H1650 | 0.331 | 0.401 | 0.311 | 0.323 | 0.35 | 0.267 | 0.311 | 0.255 | 0.261 | 0.296 | – | – | – | – | 0.248 | 0.221 | 0.187 | 0.168
19 | NCI-H1703 | – | – | – | – | – | – | – | – | – | – | 0.843 | 0.888 | 0.752 | 0.57 | 0.334 | 0.235 | 0.268 | 0.211
20 | NCI-H1793 | 0.293 | 0.305 | 0.273 | 0.304 | 0.288 | 0.333 | 0.347 | 0.358 | 0.427 | 0.298 | 0.9 | 0.979 | 0.703 | 0.738 | – | – | – | –
21 | NCI-H1944 | 0.314 | 0.304 | 0.295 | 0.311 | 0.251 | 0.196 | 0.178 | 0.175 | 0.193 | 0.16 | 1.23 | 1.19 | 1.12 | 1.04 | – | – | – | –
22 | NCI-H2170 | 0.401 | 0.455 | 0.368 | 0.357 | 0.247 | 0.615 | 0.542 | 0.478 | 0.485 | 0.406 | – | – | – | – | – | – | – | –
23 | NCI-H2342 | 0.494 | 0.456 | 0.494 | 0.548 | 0.456 | 0.284 | 0.354 | 0.28 | 0.3 | 0.267 | – | – | – | – | – | – | – | –
24 | SK-MES-1 | 0.299 | 0.348 | 0.316 | 0.307 | 0.311 | 0.336 | 0.336 | 0.284 | 0.341 | 0.306 | 1.08 | 1.04 | 1.03 | 0.754 | – | – | – | –
25 | SW 900 | 0.524 | 0.49 | 0.497 | 0.571 | 0.511 | 0.456 | 0.693 | 0.427 | 0.547 | 0.367 | – | – | – | – | – | – | – | –
